In ChEMBL document CHEMBL1151988, “Antineoplastic agents. 571. Total synthesis of bacillistatin 2” (2009):
Converted amounts (≈) assume the structure as drawn.

Tests used:
P388 = test: Cytotoxicity against mouse P388 cells; assay type: functional; conditions: read-out: ED50 (the source's name)
DU-145 = test: Cytotoxicity against human DU145 cells; assay type: functional

Row | SMILES | EC50 (P388) | GI50 (DU-145)
1 | CC[C@H](C)[C@@H](OC(=O)[C@@H](NC(=O)[C@H](C)OCc1ccccc1)C(C)C)C(=O)N[C@@H](C(=O)O[C@@H](C)C(=O)N[C@H](C(=O)O[C@@H](C(=O)N[C@@H](C(=O)O[C@@H](C)C(=O)N[C@H](C(=O)O[C@H](CC(C)C)C(=O)N[C@@H](C(=O)OC(C)(C)C)C(C)C)C(C)C)C(C)C)[C@@H](C)CC)C(C)C)C(C)C | 2.1 µg/mL (≈ 1.59 µM) | 
2 | CC[C@H](C)[C@@H](OC(=O)[C@@H](NC(=O)[C@H](C)OC(=O)[C@H](NC(=O)[C@H](OC(=O)[C@@H](NC(=O)[C@@H](C)OCc1ccccc1)C(C)C)[C@@H](C)CC)C(C)C)C(C)C)C(=O)N[C@@H](C(=O)OC(C)(C)C)C(C)C |  | 10.5 µg/mL (≈ 11.3 µM)
3 | CC[C@H](C)[C@@H](OC(=O)[C@@H](NC(=O)[C@H](C)O)C(C)C)C(=O)N[C@@H](C(=O)O[C@@H](C)C(=O)N[C@H](C(=O)O[C@@H](C(=O)N[C@@H](C(=O)O[C@@H](C)C(=O)N[C@H](C(=O)O[C@H](CC(C)C)C(=O)N[C@@H](C(=O)OC(C)(C)C)C(C)C)C(C)C)C(C)C)[C@@H](C)CC)C(C)C)C(C)C | 2 µg/mL (≈ 1.63 µM) | 
